Experimental findings from patent US20110152313A1 (MACQUARIE UNIVERSITY, priority 2008, published 2011) are described below.

One assay deals with MKNK2 (Homo sapiens, UniProt Q9HBH9). The experiment in a line: kinase binding screen (kinase-tagged T7 phage, qPCR), % Ctrl. In a few lines: (§1)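 Kinase-tagged T7 phage lysates were prepared in E. coli (MOI 0.4, 32° C until lysis), then exposed to ligand-bearing beads and test compound at a fixed concentration. Kinase remaining bound was eluted and measured by qPCR.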
For a further assay, the target named is AAK1 (Homo sapiens, UniProt Q2M2I8). The assay is described as above. In a few lines: as §1
Assay [1] concerns the target T1, RPS6KA6(Kin.Dom.2-C-terminal) (Homo sapiens, UniProt Q9UK32).
T1 sequence (Q9UK32 426-683 limits assumed): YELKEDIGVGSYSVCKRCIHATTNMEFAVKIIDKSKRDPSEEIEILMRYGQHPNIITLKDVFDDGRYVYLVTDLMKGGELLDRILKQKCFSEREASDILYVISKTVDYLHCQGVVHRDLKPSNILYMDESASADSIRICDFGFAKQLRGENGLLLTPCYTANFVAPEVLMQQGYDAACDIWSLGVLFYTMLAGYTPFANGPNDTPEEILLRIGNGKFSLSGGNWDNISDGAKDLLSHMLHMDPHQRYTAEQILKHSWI
The description is as above. The method, boiled down:
as §1

Assay [2] concerns the target RPS6KA2(Kin.Dom.2-C-terminal) (Homo sapiens, UniProt Q15349). Described as above. In a few lines: as §1
The target in a further assay is T2, PIK3C2G (Homo sapiens, UniProt O75747).
T2 sequence (O75747 1-1486): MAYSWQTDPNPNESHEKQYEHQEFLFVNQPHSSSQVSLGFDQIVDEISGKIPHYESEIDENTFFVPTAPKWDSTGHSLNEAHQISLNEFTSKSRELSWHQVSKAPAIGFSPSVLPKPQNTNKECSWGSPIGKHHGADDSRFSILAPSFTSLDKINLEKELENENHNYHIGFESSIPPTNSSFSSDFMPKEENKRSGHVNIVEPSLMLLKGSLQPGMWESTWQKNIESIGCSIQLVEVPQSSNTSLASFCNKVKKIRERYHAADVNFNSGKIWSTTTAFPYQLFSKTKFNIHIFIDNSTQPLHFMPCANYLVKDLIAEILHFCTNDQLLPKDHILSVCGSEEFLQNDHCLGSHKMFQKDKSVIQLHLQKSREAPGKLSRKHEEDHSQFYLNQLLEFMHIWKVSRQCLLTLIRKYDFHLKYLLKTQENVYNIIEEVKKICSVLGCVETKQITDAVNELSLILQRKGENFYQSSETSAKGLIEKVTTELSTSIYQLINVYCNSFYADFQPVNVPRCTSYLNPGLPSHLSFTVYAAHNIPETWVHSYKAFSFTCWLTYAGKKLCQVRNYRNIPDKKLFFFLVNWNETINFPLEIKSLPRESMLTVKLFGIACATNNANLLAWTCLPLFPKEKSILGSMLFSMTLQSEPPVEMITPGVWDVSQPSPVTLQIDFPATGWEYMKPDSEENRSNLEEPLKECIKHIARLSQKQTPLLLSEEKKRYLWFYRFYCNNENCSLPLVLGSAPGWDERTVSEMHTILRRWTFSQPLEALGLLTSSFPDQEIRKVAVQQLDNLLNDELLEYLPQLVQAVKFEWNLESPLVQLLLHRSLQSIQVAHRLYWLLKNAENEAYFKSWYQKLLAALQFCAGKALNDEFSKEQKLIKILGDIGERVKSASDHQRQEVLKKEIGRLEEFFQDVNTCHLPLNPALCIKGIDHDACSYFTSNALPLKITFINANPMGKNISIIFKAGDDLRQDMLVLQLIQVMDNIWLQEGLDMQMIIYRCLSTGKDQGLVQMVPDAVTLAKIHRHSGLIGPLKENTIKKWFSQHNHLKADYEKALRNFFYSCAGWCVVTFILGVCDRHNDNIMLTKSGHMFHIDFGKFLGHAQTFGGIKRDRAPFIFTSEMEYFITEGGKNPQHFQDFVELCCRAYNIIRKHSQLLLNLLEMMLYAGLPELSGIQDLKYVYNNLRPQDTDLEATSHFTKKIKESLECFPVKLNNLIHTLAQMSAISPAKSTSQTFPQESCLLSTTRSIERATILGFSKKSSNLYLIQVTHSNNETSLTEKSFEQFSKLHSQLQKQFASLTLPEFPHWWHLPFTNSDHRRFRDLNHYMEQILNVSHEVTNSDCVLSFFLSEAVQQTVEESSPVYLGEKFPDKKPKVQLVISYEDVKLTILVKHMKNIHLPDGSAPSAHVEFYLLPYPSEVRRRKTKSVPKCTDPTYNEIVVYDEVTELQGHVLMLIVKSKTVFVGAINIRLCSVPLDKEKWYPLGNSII
The assay is described as above. The method, boiled down:
as §1

A further assay addresses IRAK1 (Homo sapiens, UniProt P51617). Described as above. In a few lines: as §1
A further assay deals with DYRK1A (Homo sapiens, UniProt Q13627). The experiment in a line: kinase binding constant, 11-point dose response (T7 phage, qPCR). The conditions noted are these: >30 = no inhibition at highest concentration tested. As for the experimental part: Kinase inhibition studies were performed by methods well known in the prior art (Fabian, M. A. et al. Nat. Biotechnol. 2005, 23, 329). Briefly, kinase-tagged T7 phage strains were prepared in an E. coli host derived from the BL21 strain. E. coli were grown to log-phase and infected with T7 phage and incubated with shaking at 32° C. until lysis. The lysates were centrifuged and filtered to remove cell debris. […] The liganded beads were blocked with excess biotin and washed with blocking buffer (SeaBlock (Pierce); 1% BSA, 0.05% Tween 20, 1 mM DTT) to remove unbound ligand and to reduce non-specific binding. […] All reactions were performed in polystyrene 96-well plates in a final volume of 0.135 ml. […] The kinase concentration in the eluates was measured by qPCR.
An 11-point 3-fold serial dilution of each test compound (from 30 μM to 0.5 nM) was prepared in 100% DMSO at 100× final test concentration and subsequently diluted to 1× in the assay (final DMSO concentration=1%). Binding constants (KDS) were calculated with a standard dose-response curve using a 5-point sigmoidal (Hill) equation.
In general terms: Real-time PCR tracks product formation cycle by cycle.

Chain of MKNK2 (Q9HBH9 whole entry, species assumed): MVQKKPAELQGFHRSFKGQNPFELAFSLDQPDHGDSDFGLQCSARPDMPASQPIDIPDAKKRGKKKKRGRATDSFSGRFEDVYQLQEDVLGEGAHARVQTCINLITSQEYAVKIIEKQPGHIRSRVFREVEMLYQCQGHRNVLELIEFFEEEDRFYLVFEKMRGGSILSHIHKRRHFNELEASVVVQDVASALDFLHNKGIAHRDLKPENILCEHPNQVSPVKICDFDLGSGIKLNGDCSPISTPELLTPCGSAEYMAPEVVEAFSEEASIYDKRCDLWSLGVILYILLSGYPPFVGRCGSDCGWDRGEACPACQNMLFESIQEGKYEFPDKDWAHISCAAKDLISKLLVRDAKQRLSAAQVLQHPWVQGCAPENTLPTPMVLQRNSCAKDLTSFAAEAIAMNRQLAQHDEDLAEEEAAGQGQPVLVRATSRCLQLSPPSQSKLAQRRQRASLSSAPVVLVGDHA
Chain of RPS6KA2(Kin.Dom.2-C-terminal) (Q15349 415-672 limits assumed, species assumed): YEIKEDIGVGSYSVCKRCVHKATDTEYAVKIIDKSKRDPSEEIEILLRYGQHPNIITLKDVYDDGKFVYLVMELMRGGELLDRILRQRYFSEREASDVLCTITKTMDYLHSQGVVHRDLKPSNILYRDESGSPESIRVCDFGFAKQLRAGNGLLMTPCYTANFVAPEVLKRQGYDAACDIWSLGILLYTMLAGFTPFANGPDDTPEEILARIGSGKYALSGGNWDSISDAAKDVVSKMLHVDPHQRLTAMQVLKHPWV
Chain of IRAK1 (P51617 whole entry, species assumed): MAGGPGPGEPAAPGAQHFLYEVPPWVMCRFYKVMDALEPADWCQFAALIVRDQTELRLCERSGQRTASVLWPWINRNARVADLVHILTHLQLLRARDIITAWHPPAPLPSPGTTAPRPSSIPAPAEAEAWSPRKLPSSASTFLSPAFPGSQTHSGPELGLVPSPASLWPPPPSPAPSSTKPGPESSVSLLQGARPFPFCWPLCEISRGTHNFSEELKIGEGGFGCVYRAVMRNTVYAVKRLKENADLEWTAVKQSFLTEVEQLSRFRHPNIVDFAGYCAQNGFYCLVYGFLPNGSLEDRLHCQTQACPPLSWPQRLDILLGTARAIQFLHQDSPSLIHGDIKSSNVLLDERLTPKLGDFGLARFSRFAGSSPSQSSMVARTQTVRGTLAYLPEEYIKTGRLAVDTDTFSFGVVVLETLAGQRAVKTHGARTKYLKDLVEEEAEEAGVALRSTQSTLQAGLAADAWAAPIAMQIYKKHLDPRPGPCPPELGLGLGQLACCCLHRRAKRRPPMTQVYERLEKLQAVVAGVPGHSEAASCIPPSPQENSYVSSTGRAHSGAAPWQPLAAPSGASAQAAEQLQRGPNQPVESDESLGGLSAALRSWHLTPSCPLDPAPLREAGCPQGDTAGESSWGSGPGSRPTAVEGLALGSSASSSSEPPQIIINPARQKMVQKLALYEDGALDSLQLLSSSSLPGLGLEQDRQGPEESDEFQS
Chain of AAK1 (Q2M2I8 whole entry): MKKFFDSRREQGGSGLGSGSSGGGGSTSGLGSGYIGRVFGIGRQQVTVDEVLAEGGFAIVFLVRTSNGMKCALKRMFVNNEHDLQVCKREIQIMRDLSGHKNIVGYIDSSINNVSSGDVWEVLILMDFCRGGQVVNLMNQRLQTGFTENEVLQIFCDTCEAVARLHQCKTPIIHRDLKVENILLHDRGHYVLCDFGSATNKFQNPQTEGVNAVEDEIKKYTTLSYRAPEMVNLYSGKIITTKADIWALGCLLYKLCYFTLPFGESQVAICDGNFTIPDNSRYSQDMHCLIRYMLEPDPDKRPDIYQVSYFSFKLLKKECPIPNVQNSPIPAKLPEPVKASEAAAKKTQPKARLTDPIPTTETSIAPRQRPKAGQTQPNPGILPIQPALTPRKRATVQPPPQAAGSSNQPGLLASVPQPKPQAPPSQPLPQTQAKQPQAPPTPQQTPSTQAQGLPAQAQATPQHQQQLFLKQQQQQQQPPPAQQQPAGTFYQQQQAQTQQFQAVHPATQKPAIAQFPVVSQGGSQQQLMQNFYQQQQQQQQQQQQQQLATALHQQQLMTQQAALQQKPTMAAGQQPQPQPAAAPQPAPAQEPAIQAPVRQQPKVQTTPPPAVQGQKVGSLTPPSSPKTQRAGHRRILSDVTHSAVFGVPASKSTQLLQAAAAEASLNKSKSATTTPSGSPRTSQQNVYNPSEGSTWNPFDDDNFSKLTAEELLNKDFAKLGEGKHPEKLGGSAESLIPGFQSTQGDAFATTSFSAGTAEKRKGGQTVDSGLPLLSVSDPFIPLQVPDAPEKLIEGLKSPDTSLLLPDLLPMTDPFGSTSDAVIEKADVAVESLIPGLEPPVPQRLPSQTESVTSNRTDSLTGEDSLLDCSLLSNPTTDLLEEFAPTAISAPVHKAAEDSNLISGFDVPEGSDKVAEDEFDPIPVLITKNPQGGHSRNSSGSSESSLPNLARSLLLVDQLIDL

As for `Nc1nc2c(-c3ccccn3)nccc2[nH]1` [drawing 35, 4-(pyrid-2-yl)-1H-imidazo[4,5-c]pyridin-2-amine], the remaining activity at 1 µM on MKNK2 is 86%; on AAK1, 27%; in assay [1], 49%; in assay [2], 68%; on PIK3C2G it was 66%; at IRAK1 it was 52%. On DYRK1A, this compound came in with a Kd of 290 nM.

On to `Nc1nc2c(-c3cnc4ccccc4c3)nccc2[nH]1` [drawing 36, 4-(quinolin-3-yl)-1H-imidazo[4,5-c]pyridin-2-amine], for which the remaining activity at 1 µM at MKNK2 is 100%; at AAK1 it was 83%; in assay [1], 100%; in assay [2], 100%; on PIK3C2G it was 30%; at IRAK1 it was 89%. Also, the Kd at DYRK1A stood at 300 nM.

With `Nc1nc2c(-c3cc(Br)c(Br)[nH]3)nccc2[nH]1` [Ageladine A, ageladine A, reference compound], the remaining activity at 1 µM at MKNK2 was found to be 2.5%; at AAK1, 90%; in assay [1], 51%; in assay [2], 42%; at PIK3C2G, 99%; on IRAK1, 55%. Moreover, the remaining activity at 10 µM on MKNK2 (10 μM) came to 69%; on AAK1 (10 μM), 83%; in assay [1] (10 μM), 34%; in assay [2] (10 μM), 25%; on PIK3C2G (10 μM), 80%; at IRAK1 (10 μM), 35%.

One may read the remaining activity as the share of the control activity or signal that is left under treatment. A low value points to little activity left. As usually defined, the Kd is the constant that tells how readily two partners part at equilibrium.
